Laboratory results: US20240270741A1 (Cogent Biosciences, Inc., priority 2023, published 2024)

molecular target: FGFR2 (Homo sapiens, UniProt P21802); experiment: FGFR wild type enzyme assay (HTRF KinEASE-TK), FGFR2; conditions: Enz FGFR2 (nM), FGFR2 wild type enzyme assay
Sequence (P21802 399-821 limits assumed): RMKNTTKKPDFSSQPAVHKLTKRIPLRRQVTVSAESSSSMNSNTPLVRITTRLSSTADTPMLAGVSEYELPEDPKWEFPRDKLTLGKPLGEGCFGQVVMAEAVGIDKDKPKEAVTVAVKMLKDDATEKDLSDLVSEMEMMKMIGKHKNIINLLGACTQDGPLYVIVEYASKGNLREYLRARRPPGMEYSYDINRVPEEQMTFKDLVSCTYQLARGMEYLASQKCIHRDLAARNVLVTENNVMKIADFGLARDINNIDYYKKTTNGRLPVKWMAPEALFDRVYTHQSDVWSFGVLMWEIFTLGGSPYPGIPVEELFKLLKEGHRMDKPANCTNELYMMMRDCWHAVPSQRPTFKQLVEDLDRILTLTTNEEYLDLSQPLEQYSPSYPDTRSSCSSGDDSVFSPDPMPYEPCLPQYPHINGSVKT

Question: `Cc1c(-c2cc(Sc3ncccc3C#N)c3c(C#N)cnn3c2)cnn1[C@H]1CCCNC1` [Example 434, (S)-4-((3-cyanopyridin-2-yl)thio)-6-(5-methyl-1-(piperidin-3-yl)-1H-pyrazol-4-yl)pyrazolo[1,5-a]pyridine-3-carbonitrile] was tested. Which IC50 did it give?
Answer: 1 nM

Question: How did the IC50 turn out when `N#Cc1cc(F)ccc1Sc1cc(-c2cnn([C@H]3CCCNC3)c2)cn2ncc(C#N)c12` [Example 435, (S)-4-((2-cyano-4-fluorophenyl)thio)-6-(1-(piperidin-3-yl)-1H-pyrazol-4-yl)pyrazolo[1,5-a]pyridine-3-carbonitrile] was run?
Answer: 1 nM

Question: How did the IC50 turn out when `CC(=O)N1CCC(n2ncc(-c3cc(Sc4ccccc4C#N)c4c(C#N)cnn4c3)c2C)CC1` [Example 436, 6-(1-(1-acetylpiperidin-4-yl)-5-methyl-1H-pyrazol-4-yl)-4-((2-cyanophenyl)thio)pyrazolo [1,5-a]pyridine-3-carbonitrile] was run?
Answer: 1 nM

Question: Which IC50 does the source give for `Cc1c(-c2cc(Sc3ccccc3C#N)c3c(C#N)cnn3c2)cnn1C1CCN(C(=O)C(C)(C)C)CC1` [Example 437, 4-((2-cyanophenyl)thio)-6-(5-methyl-1-(1-pivaloylpiperidin-4-yl)-1H-pyrazol-4-yl)pyrazolo[1,5-a]pyridine-3-carbonitrile] here?
Answer: 1 nM

Question: `Cc1c(-c2cc(Sc3ccc(F)cc3C#N)c3c(C#N)cnn3c2)cnn1[C@H]1CC[C@@](O)(CO)CC1` [Example 438, 4-(2-cyano-4-fluoro-phenyl) sulfanyl-6-[1-[4-hydroxy-4-(hydroxymethyl)cyclohexyl]-5-methylpyrazol-4-yl] pyrazolo[1,5-a]pyridine-3-carbonitrile] was tested. Which IC50 did it give?
Answer: 1 nM

Question: With `Cc1c(-c2cc(Sc3ccc(F)cc3C#N)c3c(C#N)cnn3c2)cnn1[C@@H]1CNC(C)(C)C1` [Example 439, (S)-4-((2-cyano-4-fluorophenyl)thio)-6-(1-(5,5-dimethylpyrrolidin-3-yl)-5-methyl-1H-pyrazol-4-yl)pyrazolo[1,5-a]pyridine-3-carbonitrile] as the molecule, how does the IC50 read?
Answer: 1 nM

Question: How did the IC50 turn out when `Cc1c(-c2cc(Sc3ccc(F)cc3C#N)c3c(C#N)cnn3c2)cnn1[C@H]1CNC(C)(C)C1` [Example 440, (R)-4-((2-cyano-4-fluorophenyl)thio)-6-(1-(5,5-dimethylpyrrolidin-3-yl)-5-methyl-1H-pyrazol-4-yl)pyrazolo[1,5-a]pyridine-3-carbonitrile] was run?
Answer: 2 nM

Question: For `Cc1nn([C@H]2CC[C@H](O)CC2)cc1-c1cc(Sc2ccccc2C#N)c2c(C#N)cnn2c1` [Example 441, 4-((2-cyanophenyl)thio)-6-(1-((1r,4r)-4-hydroxycyclohexyl)-3-methyl-1H-pyrazol-4-yl)pyrazolo[1,5-a]pyridine-3-carbonitrile], which IC50 is on record?
Answer: 3 nM

Question: How did the IC50 turn out when `Cc1nn([C@H]2CC[C@H](O)CC2)cc1-c1cc(Sc2ncccc2F)c2c(C#N)cnn2c1` [Example 442, 4-((3-fluoropyridin-2-yl)thio)-6-(1-((1r,4r)-4-hydroxycyclohexyl)-3-methyl-1H-pyrazol-4-yl)pyrazolo[1,5-a]pyridine-3-carbonitrile] was run?
Answer: 8 nM

Question: Which IC50 does the source give for `Cc1nn([C@H]2CC[C@H](O)CC2)cc1-c1cc(Sc2ccc(F)cc2C#N)c2c(C#N)cnn2c1` [Example 443, 4-((2-cyano-4-fluorophenyl)thio)-6-(1-((1r,4r)-4-hydroxycyclohexyl)-3-methyl-1H-pyrazol-4-yl)pyrazolo[1,5-a]pyridine-3-carbonitrile] here?
Answer: 4 nM

Question: For `CC(=O)N1CCC(n2cc(-c3cc(Sc4ccccc4C#N)c4c(C#N)cnn4c3)cn2)CC1` [Example 444, 6-(1-(1-acetylpiperidin-4-yl)-1H-pyrazol-4-yl)-4-((2-cyanophenyl)thio)pyrazolo [1,5-a]pyridine-3-carbonitrile], which IC50 is on record?
Answer: 0.3 nM

Question: For `N#Cc1cc(F)ccc1Sc1cc(-c2cnn(C3CCN(C(=O)CO)CC3)c2)cn2ncc(C#N)c12` [Example 445, 4-((2-cyano-4-fluorophenyl)thio)-6-(1-(1-(2-hydroxyacetyl)piperidin-4-yl)-1H-pyrazol-4-yl)pyrazolo[1,5-a]pyridine-3-carbonitrile], which IC50 is on record?
Answer: 1 nM

Question: For `N#Cc1ccccc1Sc1cc(-c2cnn(C3CCN(C(=O)CO)CC3)c2)cn2ncc(C#N)c12` [Example 446, 4-((2-cyanophenyl)thio)-6-(1-(1-(2-hydroxyacetyl)piperidin-4-yl)-1H-pyrazol-4-yl)pyrazolo[1,5-a]pyridine-3-carbonitrile], which IC50 is on record?
Answer: 0.5 nM

Question: How did the IC50 turn out when `C[C@@H](O)C(=O)N1CCC(n2cc(-c3cc(Sc4ccccc4C#N)c4c(C#N)cnn4c3)cn2)CC1` [Example 447] was run?
Answer: 0.4 nM

Question: For `C[C@H](O)C(=O)N1CCC(n2cc(-c3cc(Sc4ccccc4C#N)c4c(C#N)cnn4c3)cn2)CC1` [Example 448, (S)-4-((2-cyanophenyl)thio)-6-(1-(1-(2-hydroxypropanoyl)piperidin-4-yl)-1H-pyrazol-4-yl)pyrazolo[1,5-a]pyridine-3-carbonitrile], which IC50 is on record?
Answer: 0.3 nM

Question: `CC(C)n1cc(-c2cc(Sc3ncccc3F)c3c(C#N)cnn3c2)cn1` [Example 449, 4-((3-fluoropyridin-2-yl)thio)-6-(1-isopropyl-1H-pyrazol-4-yl)pyrazolo[1,5-a]pyridine-3-carbonitrile] was tested. Which IC50 did it give?
Answer: 2 nM

Question: Which IC50 does the source give for `CC(=O)N1CC[C@H](n2cc(-c3cc(Sc4ncccc4F)c4c(C#N)cnn4c3)cn2)C1` [Example 450, (S)-6-(1-(1-acetylpyrrolidin-3-yl)-1H-pyrazol-4-yl)-4-((3-fluoropyridin-2-yl)thio)pyrazolo[1,5-a]pyridine-3-carbonitrile] here?
Answer: 1 nM

Question: Which IC50 does the source give for `N#Cc1cnn2cc(-c3cnn([C@H]4CCN(C(=O)CO)C4)c3)cc(Sc3ncccc3F)c12` [Example 451, (S)-4-((3-fluoropyridin-2-yl)thio)-6-(1-(1-(2-hydroxyacetyl)pyrrolidin-3-yl)-1H-pyrazol-4-yl)pyrazolo[1,5-a]pyridine-3-carbonitrile] here?
Answer: 1 nM

Question: For `CC(C)n1cc(-c2cc(Sc3ccccc3C#N)c3c(C#N)cnn3c2)cn1` [Example 452, 4-((2-cyanophenyl)thio)-6-(1-isopropyl-1H-pyrazol-4-yl)pyrazolo[1,5-a]pyridine-3-carbonitrile], which IC50 is on record?
Answer: 0.6 nM

Question: How did the IC50 turn out when `CC(=O)N1CC[C@H](n2cc(-c3cc(Sc4ccccc4C#N)c4c(C#N)cnn4c3)cn2)C1` [Example 453, (S)-6-(1-(1-acetylpyrrolidin-3-yl)-1H-pyrazol-4-yl)-4-((2-cyanophenyl)thio)pyrazolo [1,5-a]pyridine-3-carbonitrile] was run?
Answer: 0.4 nM

Question: `CC(=O)N1CCC(n2nc(C)c(-c3cc(Sc4ncccc4F)c4c(C#N)cnn4c3)c2F)CC1` [Example 454, 6-(1-(1-acetylpiperidin-4-yl)-5-fluoro-3-methyl-1H-pyrazol-4-yl)-4-((3-fluoropyridin-2-yl)thio)pyrazolo[1,5-a]pyridine-3-carbonitrile] was tested. Which IC50 did it give?
Answer: 12 nM

Question: With `Cc1noc(N2CCC[C@H](n3ncc(-c4cc(Sc5ccc(F)cc5C#N)c5c(C#N)cnn5c4)c3C)C2)n1` [Example 455, 4-(2-cyano-4-fluoro-phenyl)sulfanyl-6-[5-methyl-1-[(3S)-1-(3-methyl-1,2,4-oxadiazol-5-yl)-3-piperidyl]pyrazol-4-yl]pyrazolo[1,5-a]pyridine-3-carbonitrile] as the molecule, how does the IC50 read?
Answer: 2 nM

Question: With `Cc1c(-c2cc(Sc3ccc(F)cc3C#N)c3c(C#N)cnn3c2)cnn1[C@H]1CCCN(c2ccccn2)C1` [Example 456, (S)-4-((2-cyano-4-fluorophenyl)thio)-6-(5-methyl-1-(1-(pyridin-2-yl)piperidin-3-yl)-1H-pyrazol-4-yl)pyrazolo[1,5-a]pyridine-3-carbonitrile] as the molecule, how does the IC50 read?
Answer: 8 nM

Question: `N#Cc1cnn2cc(-c3cnn([C@H]4CCCNC4)n3)cc(Sc3ncccc3F)c12` [Example 457, 4-[(3-fluoro-2-pyridyl)sulfanyl]-6-[2-[(3S)-3-piperidyl]triazol-4-yl]pyrazolo[1,5-a]pyridine-3-carbonitrile] was tested. Which IC50 did it give?
Answer: 13 nM

Question: How did the IC50 turn out when `CC(=O)N1CC[C@H](n2cc(-c3cc(Sc4ccccc4C#N)c4c(C#N)cnn4c3)cn2)[C@@H](O)C1` [Example 458, 6-(1-((3S,4S)-1-acetyl-3-hydroxypiperidin-4-yl)-1H-pyrazol-4-yl)-4-((2-cyanophenyl)thio)pyrazolo [1,5-a]pyridine-3-carbonitrile] was run?
Answer: 1 nM

Question: For `CC(=O)N1CC[C@@H](n2cc(-c3cc(Sc4ccccc4C#N)c4c(C#N)cnn4c3)cn2)[C@H](O)C1` [Example 459, 6-(1-((3R,4R)-1-acetyl-3-hydroxypiperidin-4-yl)-1H-pyrazol-4-yl)-4-((2-cyanophenyl)thio)pyrazolo [1,5-a]pyridine-3-carbonitrile], which IC50 is on record?
Answer: 0.4 nM

Question: For `N#Cc1cc(F)ccc1Sc1cc(-c2cn([C@H]3CCCNC3)nn2)cn2ncc(C#N)c12` [Example 460, (S)-4-((2-cyano-4-fluorophenyl)thio)-6-(1-(piperidin-3-yl)-1H-1,2,3-triazol-4-yl)pyrazolo[1,5-a]pyridine-3-carbonitrile], which IC50 is on record?
Answer: 6 nM

Question: How did the IC50 turn out when `N#Cc1ccccc1Sc1cc(-c2cn([C@H]3CCCNC3)nn2)cn2ncc(C#N)c12` [Example 461, (S)-4-((2-cyanophenyl)thio)-6-(1-(piperidin-3-yl)-1H-1,2,3-triazol-4-yl)pyrazolo[1,5-a]pyridine-3-carbonitrile] was run?
Answer: 4 nM

Question: With `N#Cc1cc(F)ccc1Sc1cc(-c2cnn([C@H]3CCCNC3)n2)cn2ncc(C#N)c12` [Example 462, (S)-4-((2-cyano-4-fluorophenyl)thio)-6-(2-(piperidin-3-yl)-2H-1,2,3-triazol-4-yl)pyrazolo[1,5-a]pyridine-3-carbonitrile] as the molecule, how does the IC50 read?
Answer: 19 nM

Question: With `N#Cc1ccccc1Sc1cc(-c2cnn([C@H]3CCCNC3)n2)cn2ncc(C#N)c12` [Example 463, (S)-4-((2-cyanophenyl)thio)-6-(2-(piperidin-3-yl)-2H-1,2,3-triazol-4-yl)pyrazolo[1,5-a]pyridine-3-carbonitrile] as the molecule, how does the IC50 read?
Answer: 6 nM

Question: How did the IC50 turn out when `N#Cc1ccccc1Sc1cc(-c2cn([C@H]3CCNC3)nn2)cn2ncc(C#N)c12` [Example 464, (S)-4-((2-cyanophenyl)thio)-6-(1-(pyrrolidin-3-yl)-1H-1,2,3-triazol-4-yl)pyrazolo[1,5-a]pyridine-3-carbonitrile] was run?
Answer: 5 nM

Question: How did the IC50 turn out when `N#Cc1cnn2cc(-c3cn([C@H]4CCNC4)nn3)cc(Sc3ncccc3F)c12` [Example 465, (S)-4-((3-fluoropyridin-2-yl)thio)-6-(1-(pyrrolidin-3-yl)-1H-1,2,3-triazol-4-yl)pyrazolo[1,5-a]pyridine-3-carbonitrile] was run?
Answer: 11 nM
